Results from US9067974B2, “Polymyxin derivatives and uses thereof” (priority 2006, dated 2015).
Like-named read-outs stand apart in the source and are kept apart here.

Assays:
E. coli IH3080 (K1:O18) [1] = experiment: Experimental E. coli peritonitis model in mice; assay type: in vivo; conditions: 5 mg/kg subcutaneous
Description: A suspension of E. coli IH3080 (K1:O18) in saline (0.9% NaCl) was prepared from an overnight culture on a blood agar plate (Statens Serum Institut, Copenhagen, Denmark). All mice (female NMR1 from Harlan Scandinavia, Allerød, Denmark; weight, 25-30 g) were inoculated intraperitoneally with 0.5 ml of the suspension containing 0.96×10^6 CFU per ml in the lateral lower quadrant of the abdomen. At 1 h, the CFU count was determined from three mice and the remaining mice (four mice per group) were treated with a subcutaneous injection of 0.2 ml of erythromycin solution in saline (corresponding to 5 mg/kg body weight) or NAB7061 solution in saline (corresponding to 5 mg/kg body weight), or both erythromycin and NAB7061 (corresponding to 5 mg/kg body weight of both drugs; given at two separate sites). Control group received two 0.2 ml injections of saline. At 4.5 h postinfection, all mice were anaesthetized with CO2 and sacrificed. Sterile saline (2 ml) was injected intraperitoneally and the abdomen was gently massaged before it was opened and the fluid sampled. Appropriate dilutions of the fluid were plated on blood agar plates, the plates were incubated overnight, and the colonies were counted.

Ac. baumannii ATCC19606 = experiment: E-test MIC of antibiotics on Mueller-Hinton agar with or without NAB7061 (4 μg/ml); sensitization factor = MIC ratio absence/presence; assay type: cell-based; conditions: Acinetobacter baumannii, NAB 7061 0 μg/ml, A. baumannii ATCC19606
Description: (§1) MICs were determined by using E-strips (Biodisk Ltd., Solna, Sweden) according to the manufacturer's instructions.
(§2) The strains originated from ATCC (11 strains), CCUG (11 strains), and NCTC (The National Collection of Type Cultures, Colindale, U.K.; 2 strains). Eight strains (the F-strains) were purchased from Mobidiag Ltd., Helsinki, Finland. The source of E. coli IH3080 has been given in Example 2. Sensitization factor was defined as in Example 7.
(§3) Sensitization factor was defined as in Example 7. NAB7061 sensitized both carbapenem-resistant strains (F263, F264) to both carbapenems by a factor ≧4.

Ac. baumannii F263 = experiment: as above; assay type: cell-based; conditions: Acinetobacter baumannii, NAB 7061 0 μg/ml, A. baumannii F263
Description: as §1, §2, §3

Ac. baumannii F264 = experiment: as above; assay type: cell-based; conditions: Acinetobacter baumannii, NAB 7061 0 μg/ml, A. baumannii F264
Description: as §1, §2, §3

E. coli IH3080 = experiment: Sensitization to rifampin: well diffusion growth inhibition on LB plates containing rifampin; assay type: cell-based, Escherichia coli; conditions: 4 μg of compound
[2] = Two-week intravenous toxicity study in young rats; assay type: in vivo
Description: Toxicity in young rats (weighing approx. 150 g in the beginning of the study) was determined by administering doses (1, 2, 4, 8, 16, and 32 mg/kg per day) of NAB7061 as well as the control compound polymyxin B intravenously twice (2) a day for two weeks. A group of ten (10) rats was studied for each dosis regimen. Clinical observations were made daily, the body weight measured twice weekly, and the food consumption twice weekly. In the end of week 2, all animals were sacrificed.
Histopathology of kidneys was performed for each animals and histopathology of all tissues was performed in three high-dose groups receiving NAB7061.

[3] = system: Pseudomonas aeruginosa ATCC 27853; experiment: Well diffusion growth inhibition on LB agar plates (direct antibacterial activity); assay type: cell-based; conditions: Ps. aeruginosa ATCC 27853
Method in brief: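 Pseudomonas aeruginosa ATCC 27853 was tested for direct antibacterial susceptibility by agar well diffusion. A suspension of about 10^8 cells/ml in 0.9% NaCl was spread over LB agar and the excess removed. After drying, 2 mm wells were drilled and filled with compound dissolved in 0.9% NaCl, with NaCl alone as control. Plates were incubated 18 h at 37° C, and inhibition zone diameters were measured and converted to areas in square mm.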

[4] = system: Acinetobacter baumannii ATCC 19606; experiment: as above; assay type: cell-based; conditions: A. baumannii ATCC 19606
Method in brief: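 Direct antibacterial activity against Acinetobacter baumannii ATCC 19606 was measured by agar well diffusion on LB plates. The plates were flooded with a suspension of approx. 10^8 cells/ml in 0.9% NaCl, and the excess was removed. Once the surface dried, five wells of 2 mm diameter were drilled per plate. The wells were filled with test compound dissolved in 0.9% NaCl, with plain 0.9% NaCl as control. After 18 h at 37° C., inhibition zone diameters were measured and converted to growth inhibition areas in square mm.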

E. coli IH3080 (K1:O18) [5] = experiment: as above; assay type: cell-based, Escherichia coli
Method in brief: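 Growth inhibition of encapsulated E. coli IH3080 (K1:O18) was measured by well diffusion on LB agar plates. A suspension of about 10^8 cells/ml in 0.9% NaCl, made from an overnight LB agar culture, was spread over the plates and the excess removed. Once dry, five 2 mm wells were drilled per plate and test solutions added, with 0.9% NaCl as control. After 18 h at 37° C, inhibition zone diameters were measured and converted to surface areas in square mm.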

[6] = target: brush-border membrane (BBM) from the renal cortex; experiment: Inhibition of [3H] gentamycin binding to brush-border membrane vesicles; set-up: species or system rats; conditions: 20 μM [3H] gentamycin; 60 min at 4° C.; rat renal cortex BBM vesicles
Excerpt: The binding of the compounds according to this invention to isolated brush-border membrane (BBM) from the renal cortex can be measured indirectly by measuring their ability to inhibit the binding of radiolabelled gentamycin to BBM. Accordingly, the compounds according to this invention that have less affinity to BBM than for example polymyxin B inhibit the binding of radiolabelled gentamycin to a lesser degree than does polymyxin B.
BBM was isolated from the renal cortex of male albino rats by using the Mg^2+/EGTA precipitation technique as described by Nagai et al. (2006). The binding of gentamycin was measured, according to the method described by Nagai et al. (2006) by incubating BBM vesicles (20 μl) in 10 mM HEPES (pH 7.5) with 100 mM mannitol in the presence of 20 μM [^3H] gentamycin (Amersham Biosciences Inc., Buckinghamshire, U.K.) with or without the compound to be tested or a positive control. After an incubation of 60 min at 4° C., 1 ml of ice-cold buffer described above was added, and the mixture was filtered through a Millipore filter (0.45 μm; HAWP). The filter was washed with the buffer and the radioactivity remaining in the filter was measured by using a liquid scintillation counter. The IC50 values were determined as in Nagai et al. (2006) using the Hill equation.

E. coli = conditions: Sakura et al. 2004; cited from earlier work

CC[C@H]1OC(=O)[C@H](C)[C@@H](O[C@H]2C[C@@](C)(OC)[C@@H](O)[C@H](C)O2)[C@H](C)[C@@H](O[C@@H]2O[C@H](C)C[C@H](N(C)C)[C@H]2O)[C@](C)(O)C[C@@H](C)C(=O)[C@H](C)[C@@H](O)[C@]1(C)O [erythromycin]
CFU counts in peritoneal fluid (E. coli IH3080 (K1:O18) [1]; 4.5 h postinfection ([…] after the treatment)): 8.9 (±6.4)×10^6 per ml | Factor of increase of the bacterial count (E. coli IH3080 (K1:O18) [1]; from 1 h to 4.5 h postinfection): 12

C[C@@H](O)[C@H]1C(=O)N2C(C(=O)O)=C(SCCN=CN)C[C@H]12 [imipenem, reference compound]
MIC (Ac. baumannii ATCC19606; read-out: MIC of imipenem): 0.38 µg/mL | MIC (Ac. baumannii F263; read-out: MIC of imipenem): > 32 µg/mL | MIC (Ac. baumannii F264; read-out: MIC of imipenem): 24 µg/mL

C[C@@H](O)[C@H]1C(=O)N2C(C(=O)O)=C(S[C@@H]3CN[C@H](C(=O)N(C)C)C3)[C@H](C)[C@H]12 [meropenem, reference compound]
MIC (Ac. baumannii ATCC19606; read-out: MIC of meropenem): 1.5 µg/mL | MIC (Ac. baumannii F263; read-out: MIC of meropenem): > 32 µg/mL | MIC (Ac. baumannii F264; read-out: MIC of meropenem): 32 µg/mL

MO(H)A-XTX-cy[XXFLXXT], SEQ ID NO:1; commercially available polymyxin B is a mixture [reference compound]
Antibacterial activity in the presence of rifampin (growth inhibition area around a well) (E. coli IH3080; rifampin 0 μg/ml): 79 square millimeters | Antibacterial activity in the presence of rifampin (growth inhibition area around a well) (E. coli IH3080; rifampin 0.1 μg/ml): 95 square millimeters | Antibacterial activity in the presence of rifampin (growth inhibition area around a well) (E. coli IH3080; rifampin 1.0 μg/ml): 104 square millimeters | Rise of blood urea nitrogen (BUN) versus control or low dose group ([2]; rat, in vivo, 16 mg/kg/day): 15% | Lowest dose that negatively influenced the body weight gain ([2]; rat, in vivo, iv): 1 mg/kg per day | Mortality ([2]; rats, 32 mg/kg per day intravenously for two weeks): 100% | Antibacterial activity (growth inhibition area around a well) ([3]; 4 μg per well): 95 square millimeters | Antibacterial activity (growth inhibition area around a well) ([3]; 10 μg per well): 133 square millimeters | Antibacterial activity (growth inhibition area around a well) ([4]; 4 μg per well): 113 square millimeters | Antibacterial activity (growth inhibition area around a well) ([4]; 10 μg per well): 154 square millimeters | Antibacterial activity (growth inhibition area around a well) (E. coli IH3080 (K1:O18) [5]; 4 μg of compound per well): 79 square millimeters | Antibacterial activity (growth inhibition area around a well) (E. coli IH3080 (K1:O18) [5]; 10 μg of compound per well): 133 square millimeters | IC50 [6]: 39.3 µM

gentamycin [unlabelled gentamycin]
IC50 [6]: 90.2 µM

octanoyl polymyxin B heptapeptide [Octanoyl PMBH, reference compound]
Antibacterial activity in the presence of rifampin (growth inhibition area around a well) (E. coli IH3080; rifampin 0 μg/ml): 0 square millimeters | Antibacterial activity in the presence of rifampin (growth inhibition area around a well) (E. coli IH3080; rifampin 0.1 μg/ml): 0 square millimeters | Antibacterial activity in the presence of rifampin (growth inhibition area around a well) (E. coli IH3080; rifampin 1.0 μg/ml): 38 square millimeters | Concentration needed to inhibit the growth of bacteria (E. coli): 128 µg/mL | Antibacterial activity (growth inhibition area around a well) (E. coli IH3080 (K1:O18) [5]; 4 μg of compound per well): 0 square millimeters | Antibacterial activity (growth inhibition area around a well) (E. coli IH3080 (K1:O18) [5]; 10 μg of compound per well): 0 square millimeters
